Test results as given in paper PMC10040842, “Cyclopia extracts act as selective estrogen receptor subtype downregulators in estrogen receptor positive breast cancer cell lines: Comparison to standard of care breast cancer endocrine therapies and a selective estrogen receptor agonist and antagonist” (Frontiers in Pharmacology, 2023).
Read-outs that look alike come from different tables or passages of the source. Marks after values point to notes of the source that are not given here.

Tests used:
ERβ [1] = target: T1, ERβ (Homo sapiens, UniProt Q92731); experiment: Western blot, dose-response modulation of ERβ protein levels in T47D cells; type: cell-based; design: endogenous in cells; details: 24 h, relative to vehicle (DMSO) = 100%
ERα [2] = target: T2, ERα (Homo sapiens, UniProt P03372); experiment: Effect of translational inhibition (CHX) on modulation of ERα protein levels in T47D cells; type: cell-based; design: endogenous in cells; details: 1 nM CHX, over the concentrations tested
T2 sequence (P03372 1-595): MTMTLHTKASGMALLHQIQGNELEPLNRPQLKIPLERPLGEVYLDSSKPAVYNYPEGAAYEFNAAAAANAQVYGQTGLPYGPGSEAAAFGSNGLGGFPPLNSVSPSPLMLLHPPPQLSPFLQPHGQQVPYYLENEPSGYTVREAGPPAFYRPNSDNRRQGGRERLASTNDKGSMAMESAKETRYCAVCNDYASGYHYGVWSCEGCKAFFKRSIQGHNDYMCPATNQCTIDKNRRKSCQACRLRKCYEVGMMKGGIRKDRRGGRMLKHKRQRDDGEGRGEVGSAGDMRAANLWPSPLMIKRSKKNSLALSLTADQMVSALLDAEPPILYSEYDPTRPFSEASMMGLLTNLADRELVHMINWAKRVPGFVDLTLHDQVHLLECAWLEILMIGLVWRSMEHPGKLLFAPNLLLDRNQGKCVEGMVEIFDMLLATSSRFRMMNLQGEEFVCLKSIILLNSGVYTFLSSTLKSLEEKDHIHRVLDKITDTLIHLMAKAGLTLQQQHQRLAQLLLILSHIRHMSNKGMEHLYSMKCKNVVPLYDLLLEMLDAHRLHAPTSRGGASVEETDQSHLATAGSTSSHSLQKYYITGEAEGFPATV

ERα [3] = target: T2, ERα; experiment: Western blot, dose-response modulation of ERα protein levels in MCF7 cells; type: cell-based; design: although both cell lines express ERα and ERβ, MCF7 has a high ERα/ERβ ratio; endogenous in cells; host or cells: MCF7; details: 24 h; for Efficacy, ERα (AVG % ER remaining ± SD): relative to vehicle (DMSO) = 100%, maximal response of fitted dose-response curve
ERβ [4] = target: T1, ERβ; experiment: Western blot, dose-response modulation of ERβ protein levels in MCF7 cells; type: cell-based; design: although both cell lines express ERα and ERβ, MCF7 has a high ERα/ERβ ratio; endogenous in cells; host or cells: MCF7; details: 24 h, relative to vehicle (DMSO) = 100%
ERβ [5] = target: T1, ERβ; experiment: Effect of translational inhibition (CHX) on modulation of ERβ protein levels in T47D cells; type: cell-based; design: endogenous in cells; details: 1 nM CHX, over the concentrations tested
ERα [6] = target: T2, ERα; experiment: Effect of translational inhibition (CHX) on modulation of ERα protein levels in MCF7 cells; type: cell-based; design: although both cell lines express ERα and ERβ, MCF7 has a high ERα/ERβ ratio; endogenous in cells; host or cells: MCF7; details: 1 nM CHX, over the concentrations tested
ERα [7] = target: T2, ERα; experiment: Western blot, dose-response modulation of ERα protein levels in T47D cells; type: cell-based; design: endogenous in cells; details: 24 h; for Efficacy, ERα (AVG % ER remaining ± SD): relative to vehicle (DMSO) = 100%
ERβ [8] = target: T1, ERβ; experiment: Effect of translational inhibition (CHX) on modulation of ERβ protein levels in MCF7 cells; type: cell-based; design: although both cell lines express ERα and ERβ, MCF7 has a high ERα/ERβ ratio; endogenous in cells; host or cells: MCF7
ERβ [9] = target: T1, ERβ; design: endogenous in cells; method as in Power and Thompson (2003); details: T47D; 1 nM E2, 24 h 1 μM 4-OHT; ref Power and Thompson (2003); cited from earlier work
ERβ [10] = target: T1, ERβ; design: although both cell lines express ERα and ERβ, MCF7 has a high ERα/ERβ ratio; endogenous in cells; host or cells: MCF7; details: cited from earlier work
ERα [11] = details: T47D, cited from earlier work; for Effect on ERα protein levels: 24 h, 1 nM E2, 1 μM 4-OHT, ref Power and Thompson (2003)
ERα [12] = details: MCF7, cited from earlier work; for ERα protein levels downregulated: 48 h, 1 nM E2, 100 nM fulvestrant, 1 μM 4-OHT, ref Garner et al. (2015); for ERα protein levels downregulated to: after 6 h, 100 nM, ref Yeh et al. (2013)
[13] = MCF7, 1 nM CHX, over the concentrations tested
[14] = MCF7, 1 nM E2, 24 h 1 μM 4-OHT, ref Power and Thompson (2003)
[15] = MCF7, 1 nM E2, 1 μM fulvestrant, ref Mishra et al. (2016)
[16] = MCF7 cells transfected with an ERβ expression vector, 10 nM, ref Peekhaus et al. (2004)

T1 sequence (Q92731 whole entry): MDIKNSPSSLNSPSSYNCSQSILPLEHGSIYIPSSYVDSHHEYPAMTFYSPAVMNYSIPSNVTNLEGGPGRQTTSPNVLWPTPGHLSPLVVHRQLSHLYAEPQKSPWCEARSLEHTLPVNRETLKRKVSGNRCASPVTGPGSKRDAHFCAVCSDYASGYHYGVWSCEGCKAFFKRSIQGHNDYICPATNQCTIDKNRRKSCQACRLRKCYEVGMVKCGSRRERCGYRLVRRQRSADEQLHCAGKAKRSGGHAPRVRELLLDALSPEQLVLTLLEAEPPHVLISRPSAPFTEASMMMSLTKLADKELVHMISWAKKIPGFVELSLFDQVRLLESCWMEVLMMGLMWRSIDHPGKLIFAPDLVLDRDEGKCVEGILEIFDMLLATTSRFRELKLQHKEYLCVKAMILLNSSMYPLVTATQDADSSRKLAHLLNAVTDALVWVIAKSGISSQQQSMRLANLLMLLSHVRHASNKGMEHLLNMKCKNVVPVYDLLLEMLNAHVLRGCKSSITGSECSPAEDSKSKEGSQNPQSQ

Row | Efficacy, ERβ (AVG % ER remaining ± SD) (ERβ [1]) | Efficacy, ERα (AVG % ER remaining ± SD) (ERα [3]) | Efficacy, ERβ (AVG % ER remaining ± SD) (ERβ [4]) | Change in ERβ protein levels on addition of CHX (ERβ [5]) | Efficacy, ERα (AVG % ER remaining ± SD) (ERα [7]) | Change in ERβ protein levels on addition of CHX (ERβ [8]; [13]) | Structure (SMILES) | Change in ERα protein levels on addition of CHX (ERα [2]) | Change in ERα protein levels on addition of CHX (ERα [6]) | Effect on ERβ protein levels (ERβ [9]) | Effect on ERβ protein levels (ERβ [10]; [14]) | Effect on ERα protein levels (ERα [11]) | ERα protein levels downregulated (ERα [12]) [%] | ERα protein levels downregulated to (ERα [12]) [%] | Effect on ERβ protein levels (ERβ [10]; [15]) | Effect on ERβ protein levels (ERβ [10]; [16]) | also measured
1 | 108.0 ± 2.1^b*** % | 120.9 ± 3.0^b*** % | 122.0 ± 2.3^b*** % | no significant difference | 115.7 ± 3.4^b** % | 1.1 fold | Cc1c(-c2ccc(O)cc2)nn(-c2ccc(O)cc2)c1-c1ccc(OCCN2CCCCC2)cc1 [MPP, methylpiperidinopyrazole] | no significant difference | 1.1 fold |  |  |  |  |  |  |  | 
2 | 134.1 ± 4.8^b*** % | 46.8 ± 6.8^a % | 127.1 ± 9.6^b*** % | 1.2 fold | 64.1 ± 20.9^a % | not significantly altered | C[C@]12CC[C@@H]3c4ccc(O)cc4C[C@@H](CCCCCCCCC[S+]([O-])CCCC(F)(F)C(F)(F)F)[C@H]3[C@@H]1CC[C@@H]2O (stereo partly shown) [Ful, fulvestrant] |  |  |  |  |  | 100 | 35 | upregulated | upregulated | Efficacy of downregulation of ERα protein levels (ERα [12]; 1 μM, 4 h, ref Joseph et al. (2016)): 6.4%; IC50 (ERα [12]; ref Joseph et al. (2016), read-out: Potency of downregulation of ERα protein levels): 0.39 nM; ERα protein levels downgraded (ERα [11]; concentration range 0.03–1 μM, ref Liu et al. (2016)): more than 50%
3 | 58.7 ± 9.0^a % |  | 53.3 ± 5.6^a % |  |  |  | C[C@]12CC[C@@H]3c4ccc(O)cc4CC[C@H]3[C@@H]1CC[C@@H]2O [E2, 17β-estradiol] |  |  | significantly upregulated | significantly upregulated | no effect | 100 | 35 | downregulated | downregulated | Effect on ERα protein levels (ERα [12]; 24 h, 1 nM E2, 1 μM 4-OHT, ref Power and Thompson (2003)): downregulated

Row | Structure (SMILES) | Efficacy, ERβ (AVG % ER remaining ± SD) (ERβ [1]) | Efficacy, ERα (AVG % ER remaining ± SD) (ERα [3]) | Efficacy, ERβ (AVG % ER remaining ± SD) (ERβ [4]) | Change in ERβ protein levels on addition of CHX (ERβ [5]) | Efficacy, ERα (AVG % ER remaining ± SD) (ERα [7]) | Change in ERβ protein levels on addition of CHX (ERβ [8]; [13]) | Change in ERα protein levels on addition of CHX (ERα [2]) | Change in ERα protein levels on addition of CHX (ERα [6]) | Effect on ERβ protein levels (ERβ [9]) | Effect on ERβ protein levels (ERβ [10]; [14]) | Effect on ERα protein levels (ERα [11]) | ERα protein levels downregulated (ERα [12]) [%] | ERα protein levels downregulated to (ERα [12]) [%] | Effect on ERβ protein levels (ERβ [10]; [15]) | Effect on ERβ protein levels (ERβ [10]; [16]) | also measured
4 | CC/C(=C(\c1ccc(O)cc1)c1ccc(OCCN(C)C)cc1)c1ccccc1 [4-OHT, (2)-4-hydroxytamoxifen] | 151.8 ± 10.8^b*** % |  | 142.9 ± 8.2^b*** % |  |  |  |  |  | significant downregulation | significantly upregulated | upregulate |  |  |  |  | Change in ERβ protein levels on addition of CHX (ERβ [8]): not significantly altered
5 | O=C1C[C@@H](c2ccc(O)cc2)Oc2cc(O)ccc21 [Liq, liquiritigenin] |  | 65.9 ± 10.9^a % |  |  | 87.5 ± 2.5^b ^, ^c % |  | no significant difference | no significant difference |  |  |  |  |  |  |  | Potency, ERα (AVG IC50 in Log μg/mL ± SD) (ERα [3]): −1.9 ± 0.8^b**** Log μg/mL; Potency, ERα (AVG IC50 in Log μg/mL ± SD) (ERα [7]): −9.8 ± 1.0^a ^, ^c** Log μg/mL
